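1) Cells in 96-well plates. 2) Compound, 48 h, 5 concentrations. 3) Linear interpolation between surrounding doses. 4) Unreached endpoint = highest concentration. At the GI50, growth is halved.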 The source made the active and inactive calls. Cut-off read from the data, not from the text of the source: active = GI50 up to about 1.1 µM and inactive = higher.
Assays:
Experiment in all cases: inhibition of tumour cell growth, NCI panel, 48 h
A549 = test system: A549
BT-549 = test system: BT-549
DU-145 = test system: DU-145
HOP-92 = test system: HOP-92
IGROV-1 = test system: IGROV-1
LOX IMVI = test system: LOX IMVI
MCF7 = test system: MCF7
MDA-MB-231 = test system: MDA-MB-231
MDA-MB-435 = test system: MDA-MB-435
Malme-3M = test system: Malme-3M
NCI-H23 = test system: NCI-H23
NCI-H522 = test system: NCI-H522
NCI/ADR-RES = test system: NCI/ADR-RES
SK-MEL-2 = test system: SK-MEL-2
SK-OV-3 = test system: SK-OV-3
SNB-19 = test system: SNB-19
SW-620 = test system: SW-620
T47D = test system: T47D
TK-10 = test system: TK-10
UO-31 = test system: UO-31

Measured: GI50

CCOc1cc(C2SCC(=O)N2c2ccc(Oc3ccc(Cl)cc3)c(Cl)c2)ccc1O (stereo not given)
inactive: A549 17.9 µM | BT-549 15.1 µM | DU-145 16.6 µM | HOP-92 18.6 µM | IGROV-1 15.9 µM | LOX IMVI 19.4 µM | MCF7 25.1 µM | MDA-MB-231 19.3 µM | MDA-MB-435 19 µM | Malme-3M 17.1 µM | NCI-H23 17 µM | NCI-H522 13.2 µM | NCI/ADR-RES 17.7 µM | SK-MEL-2 14 µM | SK-OV-3 21.6 µM | SNB-19 17.8 µM | SW-620 17 µM | T47D 14.2 µM | TK-10 17.6 µM | UO-31 10 µM

Clc1ccc(CSc2ncnc3c2ncn3C2CCCCO2)cc1 (stereo not given)
inactive: A549 25.2 µM | BT-549 24.3 µM | DU-145 31.2 µM | HOP-92 24.7 µM | IGROV-1 30.3 µM | LOX IMVI 18.5 µM | MCF7 26.6 µM | MDA-MB-231 24.5 µM | MDA-MB-435 18.2 µM | Malme-3M 17.9 µM | NCI-H23 17.4 µM | NCI-H522 13.8 µM | NCI/ADR-RES 17.9 µM | SK-MEL-2 16.4 µM | SK-OV-3 21.4 µM | SNB-19 34.8 µM | SW-620 29.9 µM | T47D 17.4 µM | TK-10 21.8 µM | UO-31 1.88 µM

O=C(O)COc1cccc2ccccc(=O)c12
inactive: A549 > 100 µM | BT-549 > 100 µM | DU-145 > 100 µM | HOP-92 > 100 µM | IGROV-1 > 100 µM | LOX IMVI > 100 µM | MCF7 > 100 µM | MDA-MB-231 > 100 µM | MDA-MB-435 > 100 µM | Malme-3M > 100 µM | NCI-H23 > 100 µM | NCI-H522 > 100 µM | NCI/ADR-RES > 100 µM | SK-MEL-2 > 100 µM | SK-OV-3 > 100 µM | SNB-19 > 100 µM | SW-620 > 100 µM | T47D > 100 µM | TK-10 > 100 µM | UO-31 > 100 µM

COc1ccc(/C(Nc2ccccc2)=C(\CCl)c2ccccc2)cc1OC
inactive: A549 44.6 µM | BT-549 33.2 µM | DU-145 86.3 µM | HOP-92 37.6 µM | IGROV-1 > 100 µM | LOX IMVI 10.1 µM | MCF7 26.4 µM | MDA-MB-231 50.4 µM | MDA-MB-435 32.8 µM | Malme-3M 37.2 µM | NCI-H23 45.9 µM | NCI-H522 16.7 µM | NCI/ADR-RES 32.1 µM | SK-MEL-2 24.1 µM | SK-OV-3 > 100 µM | SNB-19 > 100 µM | SW-620 46.2 µM | T47D 35.5 µM | TK-10 41.5 µM | UO-31 37.2 µM

CCOc1ccc(/C(C=O)=C(\Cl)c2ccc(OC)cc2)cc1
inactive: A549 18.2 µM | BT-549 > 100 µM | DU-145 > 100 µM | HOP-92 69.3 µM | IGROV-1 > 100 µM | LOX IMVI 14.2 µM | MCF7 > 100 µM | MDA-MB-231 > 100 µM | MDA-MB-435 9.4 µM | Malme-3M > 70.5 µM | NCI-H23 > 100 µM | NCI-H522 > 27.2 µM | NCI/ADR-RES 77.4 µM | SK-MEL-2 > 100 µM | SK-OV-3 > 100 µM | SNB-19 > 91.8 µM | SW-620 > 100 µM | T47D 24.2 µM | TK-10 > 100 µM | UO-31 > 57.1 µM

COc1ccc(-n2c(Cn3nnc(-c4cccnc4)n3)nn(C3OC(COC(=O)c4ccccc4)C(OC(=O)c4ccccc4)C3OC(=O)c3ccccc3)c2=S)cc1 (stereo not given)
inactive: A549 > 100 µM | BT-549 > 100 µM | DU-145 > 100 µM | HOP-92 > 100 µM | IGROV-1 32.4 µM | LOX IMVI > 100 µM | MCF7 > 100 µM | MDA-MB-231 49 µM | MDA-MB-435 > 100 µM | Malme-3M > 100 µM | NCI-H23 > 100 µM | NCI-H522 > 100 µM | NCI/ADR-RES > 100 µM | SK-MEL-2 > 100 µM | SK-OV-3 > 100 µM | SNB-19 74 µM | SW-620 > 100 µM | T47D > 100 µM | TK-10 > 100 µM | UO-31 > 100 µM

OCCOCn1nncc1Cn1ncc2c(SCc3ccccc3)ncnc21
inactive: A549 > 100 µM | BT-549 > 100 µM | DU-145 > 100 µM | HOP-92 80.9 µM | IGROV-1 51.1 µM | LOX IMVI 35.5 µM | MCF7 49.3 µM | MDA-MB-231 > 100 µM | MDA-MB-435 45.9 µM | Malme-3M > 100 µM | NCI-H23 > 100 µM | NCI-H522 42.8 µM | NCI/ADR-RES > 100 µM | SK-MEL-2 > 100 µM | SK-OV-3 > 100 µM | SNB-19 > 100 µM | SW-620 15.6 µM | T47D 80.2 µM | TK-10 > 100 µM | UO-31 66.7 µM

From ChEMBL document CHEMBL1201862, “PubChem BioAssay data set” (2004)
